Like-named read-outs stand apart in the source and are kept apart here.
How the values were obtained:
[1] = molecular target: T1, α-amylase (from porcine pancreas) (Sus scrofa, UniProt P00690); assay: α-amylase inhibition assay (DNS colorimetric, 540 nm); assay type: biochemical; details: for IC50: means ± SD, n = 3, porcine pancreas enzyme, DNS method, 37 °C; for α-amylase inhibitory activity (in words): tested up to 100.00 μM
T1 construct: purchased Shanghai Yuanye Bio-Technology Co., Ltd. (Shanghai, China); host or cells: porcine pancreas
T1 sequence (P00690 16-511): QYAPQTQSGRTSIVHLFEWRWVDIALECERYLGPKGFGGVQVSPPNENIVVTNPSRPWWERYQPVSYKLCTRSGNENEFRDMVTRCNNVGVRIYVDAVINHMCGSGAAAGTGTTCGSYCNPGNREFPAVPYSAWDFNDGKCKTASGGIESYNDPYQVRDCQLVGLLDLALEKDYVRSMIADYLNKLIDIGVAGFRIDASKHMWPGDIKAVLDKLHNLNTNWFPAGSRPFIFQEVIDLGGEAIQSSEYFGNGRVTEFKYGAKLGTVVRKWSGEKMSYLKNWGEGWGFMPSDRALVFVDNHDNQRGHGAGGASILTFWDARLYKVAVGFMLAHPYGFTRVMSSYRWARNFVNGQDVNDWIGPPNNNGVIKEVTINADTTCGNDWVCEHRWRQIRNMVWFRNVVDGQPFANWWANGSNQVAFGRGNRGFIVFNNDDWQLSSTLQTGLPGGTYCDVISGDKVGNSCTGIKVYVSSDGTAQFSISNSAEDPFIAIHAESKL
Procedure: (§1) ESI-HR-MS was recorded on an Orbitrap Exploris 120 quadrupole electrostatic field orbital well high-resolution mass spectrometer for UPLC-Q-Orbitrap HRMS (Waltham, MA, USA) equipped with a Hypersil GOLD C18 column (2.1 × 100 mm, 1.9 μm, ThermoFisher, Waltham, MA, USA). Optical rotations were measured on an MCP 500 polarimeter (Anton Paar, Graz, Austria). CD spectra were obtained using a Chirascan circular dichroism spectrometer (Applied PhotoPhysics, Leatherhead, Surrey, UK). UV spectra were measured with a UV-3600 Plus spectrophotometer (Shimadzu, Kyoto, Japan), and IR spectra were obtained using an IR Affinity-1S spectrophotometer (Shimadzu, Kyoto, Japan). Preparative and semipreparative HPLC were performed on a Shimadzu LC-16 system using a reverse-phase C18 column (20 × 250 mm, 5 μm, Shimadzu, Kyoto, Japan). NMR experiments were conducted on a Bruker AVANCE-600 instrument with tetramethylsilane (TMS) as an internal standard, operating at 600 MHz for ^1H NMR and 150 MHz for ^13C NMR (Ettlingen, Germany). Enzyme inhibition activity was measured using an Agilent Synergy H1 microplate reader (Agilent Technologies, Santa Clara, CA, USA). Macroporous resin AB-8 was obtained from the Chemical Plant of Nankai University (Tianjin, China). […] Analytical-grade reagents were procured from Da Mao Chemical Reagent Co., Ltd. (Tianjin, China), chromatographic-grade reagents from Honeywell Trade (Shanghai) Co., Ltd. (Shanghai, China), and distilled water from Watsons (Hong Kong, China).
Test sample solutions at various concentrations (5.00, 10.00, 20.00, 40.00, 60.00, 80.00, and 100.00 μM) were preincubated with α-amylase (2 U/mL) at 37 °C for 10 min. The reaction was terminated by adding 200 μL of DNS reagent and boiling the mixture at 100 °C for 5 min to inactivate the enzyme. After cooling to room temperature, 1 mL of distilled water was added for dilution, and absorbance was measured at 540 nm.

[2] = molecular target: T2, α-Glucosidase (from yeast, EC 3.2.1.20) (Saccharomyces cerevisiae, UniProt P53341); assay: biochemical; assay type: biochemical; details: for IC50: means ± SD, n = 3, yeast enzyme, p-NPG substrate, 37 °C; for α-glucosidase inhibitory activity (in words): tested up to 100.00 μM
T2 construct: purchased Shanghai Yuanye Bio-Technology Co., Ltd. (Shanghai, China)
T2 sequence (P53341 whole entry): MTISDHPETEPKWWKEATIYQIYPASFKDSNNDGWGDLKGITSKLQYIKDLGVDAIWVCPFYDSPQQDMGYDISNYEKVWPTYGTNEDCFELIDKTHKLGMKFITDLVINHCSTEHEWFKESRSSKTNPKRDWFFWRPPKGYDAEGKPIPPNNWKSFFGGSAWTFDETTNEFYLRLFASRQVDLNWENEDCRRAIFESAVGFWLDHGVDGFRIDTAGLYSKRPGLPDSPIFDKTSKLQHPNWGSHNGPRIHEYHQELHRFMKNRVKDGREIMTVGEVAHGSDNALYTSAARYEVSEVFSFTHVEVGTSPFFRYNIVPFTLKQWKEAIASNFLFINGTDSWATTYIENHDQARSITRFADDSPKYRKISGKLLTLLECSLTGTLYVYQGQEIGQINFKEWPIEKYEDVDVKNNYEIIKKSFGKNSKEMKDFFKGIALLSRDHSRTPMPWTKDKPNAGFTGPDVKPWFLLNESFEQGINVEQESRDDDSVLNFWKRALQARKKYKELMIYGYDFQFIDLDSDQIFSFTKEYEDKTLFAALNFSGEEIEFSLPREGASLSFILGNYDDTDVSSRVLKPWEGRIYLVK
Procedure: as §1
Then, 400 μL of p-NPG solution (5 mM) was added to initiate the enzymatic reaction, which continued to incubate at 37 °C for 20 min. The reaction was terminated by placing the mixture in a −20 °C freezer for 10 min. Absorbance was measured at 405 nm using a microplate reader.

## COc1ccc(C2=CC(=O)OC2Cc2ccc(O)cc2)c(OC2OC(CO)C(O)C(O)C2O)c1 (single isomer, unassigned; (-)) [Compound 3, (−)-puerol B-2-O-glucopyranoside]
[1]; read-out: IC50 α-Amylase
  IC50: 83.6 ± 1.15 µM
[1]
  α-amylase inhibitory activity (in words): significant inhibitory activity
[2]; read-out: IC50 α-Glucosidase
  IC50: 72.9 ± 0.79 µM
[2]
  α-glucosidase inhibitory activity (in words): significant inhibitory activity

## COc1ccc(C2=CC(=O)OC2Cc2ccc(OC3OC(CO)C(O)C(O)C3O)cc2)c(OC2OC(CO)C(O)C(O)C2O)c1 (stereo not drawn) [Compound 1, 4R-pueroside B]
[1]; read-out: IC50 α-Amylase
  IC50: 81.7 ± 1.72 µM
[1]
  α-amylase inhibitory activity (in words): significant inhibitory activity
[2]; read-out: IC50 α-Glucosidase
  IC50: 61.3 ± 1.15 µM
[2]
  α-glucosidase inhibitory activity (in words): significant inhibitory activity

## COc1ccc(C2=CC(=O)OC2Cc2ccc(OC3OC(CO)C(O)C(O)C3O)cc2)c(OC2OC(CO)C(O)C(O)C2O)c1 (stereo not drawn) [Compound 2, 4S-pueroside B]
[1]; read-out: IC50 α-Amylase
  IC50: > 100 µM
[1]
  α-amylase inhibitory activity (in words): did not show any activity
[2]; read-out: IC50 α-Glucosidase
  IC50: > 100 µM
[2]
  α-glucosidase inhibitory activity (in words): did not show any activity

## COc1cc2c(cc1OC)[C@@H](Cc1ccc(Oc3cc(C[C@@H]4c5cc(OC)c(OC)cc5CCN4C)ccc3O)cc1)N(C)CC2 [Compound 4, dauricine]
[1]; read-out: IC50 α-Amylase
  IC50: 60.9 ± 1.68 µM
[2]; IC50 α-Glucosidase
  IC50: 44.2 ± 1.03 µM

## COc1cc2c(cc1O)[C@@H](Cc1ccc(O)c(Oc3ccc(C[C@@H]4c5cc(OC)c(OC)cc5CCN4C)cc3)c1)N(C)CC2 [Compound 5, daurisoline]
[1]; read-out: IC50 α-Amylase
  IC50: 66.4 ± 2.31 µM
[2]; IC50 α-Glucosidase
  IC50: 45.2 ± 1.27 µM

## COc1ccc2c(c[n+](C)c3c4cc5c(cc4ccc23)OCO5)c1OC [Compound 6, chelerythrine]
[1]; read-out: IC50 α-Amylase
  IC50: 71.4 ± 1.24 µM
[2]; read-out: IC50 α-Glucosidase
  IC50: 52.3 ± 1.59 µM

## COc1cc2c(cc1O)[C@@H]1Cc3ccc(O)c(OC)c3CN1CC2 [Compound 7, stepholidine]
[1]; read-out: IC50 α-Amylase
  IC50: 78.2 ± 1.98 µM
[2]; read-out: IC50 α-Glucosidase
  IC50: 58.8 ± 1.55 µM

## COC1=CC(=O)[C@@]2([C@@H]1O)[C@@H](Cl)C[C@@]13C(OC)=C(OC)C(=O)C[C@@]21CCN3C [Compound 8, acutumine]
[1]; read-out: IC50 α-Amylase
  IC50: 80.7 ± 1.85 µM
[2]; read-out: IC50 α-Glucosidase
  IC50: 66.5 ± 2.03 µM

## COC1=C[C@@H]2[C@@H]3Cc4ccc(OC)c(O)c4[C@]2(CCN3C)CC1=O [Compound 9, sinomenine]
[1]; IC50 α-Amylase
  IC50: 66.7 ± 1.45 µM
[2]; IC50 α-Glucosidase
  IC50: 57.6 ± 0.88 µM

## COc1cc(O)ccc1C(O)C(=O)Cc1ccc(O)cc1 (stereo not drawn) [Compound 10]
[1]; read-out: IC50 α-Amylase
  IC50: 63.6 ± 1.37 µM
[2]; read-out: IC50 α-Glucosidase
  IC50: 43.6 ± 0.76 µM

## CC1(C)C=Cc2cc3c(cc2O1)OC1C2(O)C=CC(=O)C=C2OCC31O (stereo not drawn) [Compound 11, hydroxytuberosone]
[1]; read-out: IC50 α-Amylase
  IC50: 38.9 ± 1.08 µM
[2]; read-out: IC50 α-Glucosidase
  IC50: 32.2 ± 0.71 µM

## CC1(C)CC(=O)C2(C)CCC3(C)C(=CCC4C5(C)CCC(=O)C(C)(CO)C5CCC43C)C2C1 (stereo not drawn) [Compound 12, melilotigenin B]
[1]; read-out: IC50 α-Amylase
  IC50: 30.9 ± 0.57 µM
[2]; read-out: IC50 α-Glucosidase
  IC50: 23.3 ± 0.38 µM

Source: article PMC11395397, “Isolation and Characterization of Novel Pueroside B Isomers and Other Bioactive Compounds from Pueraria lobata Roots: Structure Elucidation, α-Glucosidase, and α-Amylase Inhibition Studies” (International Journal of Molecular Sciences, 2024)
